Activity calls are given as the source filed them. No cut-off for these calls is given here.
Assays:
Tubulin (Homo sapiens) [1] = biological target: T1, Tubulin (Homo sapiens) (UniProt P68371+Q9H4B7+P0DPH7+P68366+Q13509+Q71U36+P04350+Q3ZCM7+P07437+P68363+Q9BQE3+Q6PEY2+Q13885+Q9BVA1+Q9BUF5); assay: Inhibition of tubulin (unknown origin) polymerization at 3 to 10 uM by fluorescence assay; format: protein-complex assay
A549 [2] = assay: Cytotoxicity against human A549 cells assessed as growth inhibition after 72 hrs by CellTiter 96 Aqueous one solution cell proliferation assay; format: functional, cell-based; conditions: for IC50: A549, 72 h
Tubulin (Homo sapiens) [3] = biological target: T1, Tubulin (Homo sapiens); conditions: 45 uM
Description: Displacement of colchicine from tubulin (unknown origin) at 45 uM preincubated for 30 mins followed by colchicine addition measured after 30 mins by fluorescence assay

Tubulin (Homo sapiens) [4] = biological target: T1, Tubulin (Homo sapiens); assay: Inhibition of tubulin (unknown origin) polymerization at 10 uM by fluorescence assay; format: protein-complex assay
MCF7 = assay: Cytotoxicity against human MCF7 cells assessed as growth inhibition after 72 hrs by CellTiter 96 Aqueous one solution cell proliferation assay; format: functional, cell-based; conditions: MCF7, 72 h
[5] = Cytotoxicity against human PC3 cells assessed as growth inhibition after 72 hrs by CellTiter 96 Aqueous one solution cell proliferation assay; format: functional, cell-based; conditions: PC-3, 72 h
A549 [6] = assay: Cell cycle arrest in human A549 cells assessed as accumulation at G1 phase at 3 uM after 24 hrs by propidium iodide staining-based flow cytometric analysis (reference value: 75.9%); format: functional
A549 [7] = assay: Cell cycle arrest in human A549 cells assessed as accumulation at G1 phase at 1 uM after 24 hrs by propidium iodide staining-based flow cytometric analysis (reference value: 75.9%); format: functional
[8] = Cytotoxicity against human HCT116 cells assessed as growth inhibition after 72 hrs by CellTiter 96 Aqueous one solution cell proliferation assay; format: functional, cell-based; conditions: HCT-116, 72 h
A549 [9] = assay: Cell cycle arrest in human A549 cells assessed as accumulation at G2/M phase at 0.3 uM after 24 hrs by propidium iodide staining-based flow cytometric analysis (reference value: 16.5%); format: functional
A549 [10] = assay: Cell cycle arrest in human A549 cells assessed as accumulation at G2/M phase at 1 uM after 24 hrs by propidium iodide staining-based flow cytometric analysis (reference value: 16.5%); format: functional
NCI-H460 = assay: Cytotoxicity against human NCI-H460 cells assessed as growth inhibition after 72 hrs by CellTiter 96 Aqueous one solution cell proliferation assay; format: functional, cell-based; conditions: NCI-H460, 72 h
A549 [11] = assay: Cell cycle arrest in human A549 cells assessed as accumulation at G2/M phase at 3 uM after 24 hrs by propidium iodide staining-based flow cytometric analysis (reference value: 16.5%); format: functional
HeLa = assay: Cytotoxicity against human HeLa cells assessed as growth inhibition after 72 hrs by CellTiter 96 Aqueous one solution cell proliferation assay; format: functional, cell-based
A549 [12] = assay: Cell cycle arrest in human A549 cells assessed as accumulation at G1 phase at 0.3 uM after 24 hrs by propidium iodide staining-based flow cytometric analysis (reference value: 75.9%); format: functional
A549 [13] = assay: Induction of microtubule destabilization in human A549 cells at 4 uM by DAPI-staining-based fluorescence microscopic analysis; format: cell-based
A549 [14] = assay: Cell cycle arrest in human A549 cells assessed as accumulation at G2/M phase after 24 hrs by propidium iodide staining-based flow cytometric analysis; format: functional
Tubulin (Homo sapiens) [15] = biological target: T1, Tubulin (Homo sapiens); assay: Displacement of colchicine from tubulin (unknown origin) preincubated for 30 mins followed by colchicine addition measured after 30 mins by fluorescence assay; format: protein-complex assay
A549 [16] = assay: Induction of microtubule destabilization in human A549 cells at 45 nM by DAPI-staining-based fluorescence microscopic analysis; format: cell-based

SMILES	IC50 (A549 [2])	further results
COc1ccc(C(C)(O)c2ncnc3ccccc23)cc1 (single isomer, unassigned; (-))	–	inhibition (Tubulin (Homo sapiens) [1]): Active; growth inhibition (GI) (A549 [2]): Active
COC(=O)Nc1nc2cc(C(=O)c3cccs3)ccc2[nH]1	–	inhibition (Tubulin (Homo sapiens) [3]): Active
CC(O)(c1ccc2c(c1)OCO2)c1ncnc2ccccc12 (configuration not stated)	20 µM	–
COc1ccc(C(O)(Cc2ccccc2)c2ncnc3ccccc23)cc1 (configuration not stated)	9.8 µM	–
CN(C)c1ccc(C(C)(O)c2ncnc3ccccc23)cc1 (configuration not stated)	1.3 µM	–
COc1ccc(C(C)(O)c2nc(Oc3ccccc3)nc3ccccc23)cc1 (configuration not stated)	3.3 µM	–
COc1ccc(C(C)(O)c2nc(C)nc3ccccc23)cc1 (configuration not stated)	0.053 µM	–
COc1ccc(C(C)(O)c2nc(N(C)C)nc3ccccc23)cc1 (configuration not stated)	0.21 µM	–
COc1ccc(C(C)(O)c2nc(N3CCC(C)CC3)nc3ccccc23)cc1 (configuration not stated)	19 µM	–
COc1ccc(C(O)c2ncnc3ccccc23)cc1 (configuration not stated)	> 25 µM	–
CC(O)(c1ccc(C(F)(F)F)cc1)c1ncnc2ccccc12 (configuration not stated)	> 25 µM	–
COc1cccc(C(C)(O)c2ncnc3ccccc23)c1 (configuration not stated)	> 25 µM	–
COc1ccc(C(C)(O)c2nc(-c3ccsc3)nc3ccccc23)cc1 (configuration not stated)	0.035 µM	–
CCC(O)(c1ccc(OC)cc1)c1ncnc2ccccc12 (configuration not stated)	1.8 µM	–
C=CCOc1nc(C(C)(O)c2ccc(OC)cc2)c2ccccc2n1 (configuration not stated)	0.41 µM	–
COc1ccc(C(C)(O)c2nc(-c3ccccc3Cl)nc3ccccc23)cc1 (configuration not stated)	0.78 µM	–
CCOc1ccc(C(=O)c2ncnc3ccccc23)cc1	> 25 µM	–
COc1ccc(C(C)(O)c2nc(-c3ccccc3)nc3ccccc23)cc1 (configuration not stated)	0.1 µM	inhibition (Tubulin (Homo sapiens) [4]): Active
COc1ccc(C(C)(O)c2nc(SC)nc3ccccc23)cc1 (configuration not stated)	0.067 µM	–
COc1ccc(C(C)(O)c2nc(-c3ccc(Cl)cc3)nc3ccccc23)cc1 (configuration not stated)	0.4 µM	–
COc1ccc(C(C)(O)c2nc(Cl)nc3ccccc23)cc1 (configuration not stated)	0.027 µM	–
COc1ccc(C(C)(O)c2nc(N3CCCCC3)nc3ccccc23)cc1 (configuration not stated)	2.7 µM	–
COc1ccc(C(C)(O)c2ncnc3ccccc23)cc1OC (configuration not stated)	21 µM	–
COc1ccc(C(C)(O)c2nc(N3CCN(c4ccc(F)cc4)CC3)nc3ccccc23)cc1 (configuration not stated)	1.9 µM	–
COc1ccc(C(C)(O)c2nc(OC)c3ccccc3n2)cc1 (configuration not stated)	2 µM	–

SMILES	IC50 (A549 [2])	further results
CCOc1nc(C(C)(O)c2ccc(OC)cc2)c2ccccc2n1 (configuration not stated)	0.34 µM	–
CC(O)(c1cccc(O)c1)c1ncnc2ccccc12 (configuration not stated)	> 25 µM	–
COc1ccc(C(O)(c2ncnc3ccccc23)C(F)(F)F)cc1 (configuration not stated)	1.1 µM	–
CC(O)(c1ccc(F)cc1)c1ncnc2ccccc12 (configuration not stated)	> 25 µM	–
COc1ccc(C(C)(O)c2nc(C(Cl)(Cl)Cl)nc3ccccc23)cc1 (configuration not stated)	0.038 µM	–
CCCOc1nc(C(C)(O)c2ccc(OC)cc2)c2ccccc2n1 (configuration not stated)	1.2 µM	–
CC(O)(c1ccc(Cl)cc1)c1ncnc2ccccc12 (configuration not stated)	> 25 µM	–
COc1ccc(C(C)(O)c2ncnc3ccccc23)cc1 (stereo in doubt; (+)-1a)	–	inhibition (Tubulin (Homo sapiens) [1]): Active; growth inhibition (GI) (A549 [2]): Active
CC(O)(c1cccc(OCc2ccccc2)c1)c1ncnc2ccccc12 (configuration not stated)	> 25 µM	–
CCOc1ccc(C(C)(O)c2ncnc3ccccc23)cc1 (configuration not stated)	0.3 µM	–
COc1ccc(C(C)(O)c2nc(-c3cccc(Cl)c3)nc3ccccc23)cc1 (configuration not stated)	2.1 µM	–
COc1ccc(C(C)(O)c2nc(Nc3ccccc3)nc3ccccc23)cc1 (configuration not stated)	2.7 µM	–
COc1ccc(C(C)(O)c2ncnc3ccccc23)cc1 (racemic) [listing 1 of 2 here]	0.27 µM	IC50 (MCF7): 0.1 µM; IC50 [5]: 0.1 µM; Activity (A549 [6]): 18.3%; Activity (A549 [7]): 23.7%; IC50 [8]: 0.1 µM; Activity (A549 [9]): 35.3%; Activity (A549 [10]): 68.6%; IC50 (NCI-H460): 0.1 µM; Activity (A549 [11]): 75.9%; IC50 (HeLa): 0.1 µM; Activity (A549 [12]): 56.9%
COc1ccc(C(C)(O)c2nc(OC)nc3ccccc23)cc1 (configuration not stated)	0.058 µM	–
CNc1ccc(C(C)(O)c2ncnc3ccccc23)cc1 (configuration not stated)	4.1 µM	–
COc1ccc(C(C)(O)c2ncnc3ccccc23)cc1 (racemic) [listing 2 of 2 here]	–	Activity (A549 [13]): Active; inhibition (Tubulin (Homo sapiens) [1]): Active; Activity (A549 [14]): Dose-dependent effect; inhibition (Tubulin (Homo sapiens) [15]): Dose-dependent effect
CSc1ccc(C(C)(O)c2ncnc3ccccc23)cc1 (configuration not stated)	0.34 µM	–
CC(O)(c1ccccc1)c1ncnc2ccccc12 (configuration not stated)	> 25 µM	–
COc1cc2c(c(OC)c1OC)-c1ccc(OC)c(=O)cc1[C@@H](NC(C)=O)CC2	–	Activity (A549 [16]): Active
COc1ccc(C(C)(O)c2nc(N3CCOCC3)nc3ccccc23)cc1 (configuration not stated)	0.17 µM	–
COc1cc(C(C)(O)c2ncnc3ccccc23)cc(OC)c1OC (configuration not stated)	> 25 µM	–
COc1ccc(C(=O)c2ncnc3ccccc23)cc1	20 µM	–
CC(O)(c1ccc(OC(F)(F)F)cc1)c1ncnc2ccccc12 (configuration not stated)	> 25 µM	–
CC[C@]1(O)C[C@@H]2CN(CCc3c([nH]c4ccccc34)[C@@](C(=O)OC)(c3cc4c(cc3OC)N(C)[C@H]3[C@@](O)(C(=O)OC)[C@H](OC(C)=O)[C@]5(CC)C=CCN6CC[C@]43[C@@H]65)C2)C1	–	inhibition (Tubulin (Homo sapiens) [15]): inactive
COc1ccc(C(C)(O)c2nc(=O)[nH]c3ccccc23)cc1 (configuration not stated)	> 25 µM	–

Reference: ChEMBL document CHEMBL3425417, “Synthesis and Structure-Activity Relationship Study of 1-Phenyl-1-(quinazolin-4-yl)ethanols as Anticancer Agents” (ACS Med Chem Lett, 2015)
